Measured values as given in patent US10501461B2, “Tyrosine amide derivatives as Rho-kinase inhibitors” (CHIESI FARMACEUTICI S.P.A., priority 2017, dated 2019).

Experiments:
Rho kinase 1 (ROCK-I) = Rho kinase 1 (ROCK-I) (Homo sapiens, UniProt Q13464); test: In vitro Rho kinase inhibitory activity assay (ADP-Glo), Rho kinase 1; type: biochemical; details: 10 μM ATP, 25° C., expressed as range of activity
Method in brief: (§1)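 Kinase activity is measured as ADP production (ADP-Glo, luminescence) after 1 hour at 25 °C with 10 μM ATP and 2.5 μM Myelin Basic Protein, following 30 min enzyme–compound preincubation. Buffer is 40 mM Tris pH7.5, 20 mM MgCl2, 0.1 mg/ml BSA, 50 μM DTT.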

Rho kinase 2 (ROCK-II) = Rho kinase 2 (ROCK-II) (Homo sapiens, UniProt O75116); test: In vitro Rho kinase inhibitory activity assay (ADP-Glo), Rho kinase 2; type: biochemical; details: 10 μM ATP, 25° C., expressed as range of activity
Rho kinase 2 (ROCK-II), sequence (O75116 whole entry): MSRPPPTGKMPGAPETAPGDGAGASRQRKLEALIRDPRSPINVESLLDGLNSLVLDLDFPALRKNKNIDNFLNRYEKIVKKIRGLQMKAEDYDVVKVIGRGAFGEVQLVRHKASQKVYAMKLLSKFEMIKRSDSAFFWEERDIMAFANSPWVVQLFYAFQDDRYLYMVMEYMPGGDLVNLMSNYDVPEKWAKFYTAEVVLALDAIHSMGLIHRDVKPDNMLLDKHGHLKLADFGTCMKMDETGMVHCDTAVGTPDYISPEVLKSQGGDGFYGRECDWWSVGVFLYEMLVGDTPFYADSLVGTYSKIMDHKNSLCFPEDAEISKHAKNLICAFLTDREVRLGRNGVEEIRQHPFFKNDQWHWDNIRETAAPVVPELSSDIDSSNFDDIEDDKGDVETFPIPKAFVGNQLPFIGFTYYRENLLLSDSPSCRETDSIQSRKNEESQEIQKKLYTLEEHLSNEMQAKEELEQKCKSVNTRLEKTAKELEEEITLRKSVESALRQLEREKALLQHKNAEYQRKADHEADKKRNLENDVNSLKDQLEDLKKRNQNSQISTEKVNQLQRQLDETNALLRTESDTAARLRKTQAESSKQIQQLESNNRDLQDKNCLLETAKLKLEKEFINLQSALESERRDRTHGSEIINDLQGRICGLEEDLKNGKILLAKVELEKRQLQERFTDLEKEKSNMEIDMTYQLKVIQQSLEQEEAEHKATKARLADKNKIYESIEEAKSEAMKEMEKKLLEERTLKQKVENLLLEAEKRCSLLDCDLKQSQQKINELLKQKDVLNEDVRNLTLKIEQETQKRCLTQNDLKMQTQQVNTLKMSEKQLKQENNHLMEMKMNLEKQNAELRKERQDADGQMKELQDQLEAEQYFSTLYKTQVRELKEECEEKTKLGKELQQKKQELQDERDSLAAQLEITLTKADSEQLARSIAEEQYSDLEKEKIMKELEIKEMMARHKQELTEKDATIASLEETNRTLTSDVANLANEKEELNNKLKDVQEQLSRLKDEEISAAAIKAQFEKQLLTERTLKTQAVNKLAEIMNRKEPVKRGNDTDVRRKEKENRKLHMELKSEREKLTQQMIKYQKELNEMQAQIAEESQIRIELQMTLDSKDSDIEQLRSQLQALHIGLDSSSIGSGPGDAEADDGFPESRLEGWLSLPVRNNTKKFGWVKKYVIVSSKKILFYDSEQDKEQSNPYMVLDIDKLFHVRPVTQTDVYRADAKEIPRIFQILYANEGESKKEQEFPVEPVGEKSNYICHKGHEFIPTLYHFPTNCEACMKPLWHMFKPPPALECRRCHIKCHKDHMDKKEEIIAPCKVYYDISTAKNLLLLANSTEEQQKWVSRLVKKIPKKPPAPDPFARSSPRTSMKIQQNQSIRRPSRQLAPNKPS
Method in brief: as §1

Rho kinase 1 (ROCK-I), sequence (Q13464 whole entry): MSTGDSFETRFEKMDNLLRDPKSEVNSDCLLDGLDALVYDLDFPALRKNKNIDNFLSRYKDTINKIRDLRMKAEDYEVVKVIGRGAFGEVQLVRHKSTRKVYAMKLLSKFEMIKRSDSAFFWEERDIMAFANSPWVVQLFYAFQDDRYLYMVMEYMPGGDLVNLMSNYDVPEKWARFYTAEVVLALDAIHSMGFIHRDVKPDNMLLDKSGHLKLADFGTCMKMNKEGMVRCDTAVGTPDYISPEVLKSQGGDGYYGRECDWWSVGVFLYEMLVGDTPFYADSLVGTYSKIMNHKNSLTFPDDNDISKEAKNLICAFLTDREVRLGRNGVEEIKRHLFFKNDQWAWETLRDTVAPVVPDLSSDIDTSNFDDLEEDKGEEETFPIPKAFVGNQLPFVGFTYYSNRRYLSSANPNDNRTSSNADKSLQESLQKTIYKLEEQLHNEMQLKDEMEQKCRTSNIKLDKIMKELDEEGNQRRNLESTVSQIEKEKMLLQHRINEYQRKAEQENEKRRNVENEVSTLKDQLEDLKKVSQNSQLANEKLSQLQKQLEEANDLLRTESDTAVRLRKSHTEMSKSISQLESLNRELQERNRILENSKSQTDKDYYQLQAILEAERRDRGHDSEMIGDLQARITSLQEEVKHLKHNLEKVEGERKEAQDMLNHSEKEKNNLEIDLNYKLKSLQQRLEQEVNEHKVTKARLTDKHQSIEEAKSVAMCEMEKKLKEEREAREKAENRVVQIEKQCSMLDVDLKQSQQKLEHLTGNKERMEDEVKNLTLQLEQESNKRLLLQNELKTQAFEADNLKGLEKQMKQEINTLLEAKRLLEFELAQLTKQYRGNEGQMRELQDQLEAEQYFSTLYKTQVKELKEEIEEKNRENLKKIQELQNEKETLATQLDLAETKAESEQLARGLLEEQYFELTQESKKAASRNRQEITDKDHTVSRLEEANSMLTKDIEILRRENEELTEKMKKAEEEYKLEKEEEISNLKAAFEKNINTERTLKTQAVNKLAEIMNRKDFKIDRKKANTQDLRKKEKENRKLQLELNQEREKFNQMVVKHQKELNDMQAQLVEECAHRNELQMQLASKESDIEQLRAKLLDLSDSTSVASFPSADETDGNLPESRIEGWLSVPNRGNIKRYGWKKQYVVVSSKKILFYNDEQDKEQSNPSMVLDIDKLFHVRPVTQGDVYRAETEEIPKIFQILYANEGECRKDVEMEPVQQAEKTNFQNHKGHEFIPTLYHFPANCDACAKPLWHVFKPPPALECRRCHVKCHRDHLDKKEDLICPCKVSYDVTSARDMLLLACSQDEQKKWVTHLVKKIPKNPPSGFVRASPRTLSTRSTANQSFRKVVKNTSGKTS

Structure (SMILES) | Ki (Rho kinase 1 (ROCK-I)) [nM] | Ki (Rho kinase 2 (ROCK-II)) [nM]
CN(CC1CCCCC1)C(=O)[C@@H](N)Cc1ccc(Oc2ccnc3[nH]ccc23)cc1 [Example 92, (S)-3-(4-((1H-pyrrolo[2,3-b]pyridin-4-yl)oxy)phenyl)-2-amino-N-(cyclohexylmethyl)-N-methylpropanamide] | 3 to 30 | 3 to 30
Cc1c[nH]c2nccc(Oc3ccc(C[C@@H](N)C(=O)NC4CCCCC4)cc3F)c12 [Example 148, (R)-2-amino-N-cyclohexyl-3-(3-fluoro-4-((3-methyl-1H-pyrrolo[2,3-b]pyridin-4-yl)oxy)phenyl)propanamide] | < 3 | < 3
Cc1c[nH]c2nccc(Oc3ccc(CC(N)C(=O)N4CCN(c5ccccn5)CC4)cc3F)c12 (stereo not drawn) [Example 80, 2-amino-3-(3-fluoro-4-((3-methyl-1H-pyrrolo[2,3-b]pyridin-4-yl)oxy)phenyl)-1-(4-(pyridin-2-yl)piperazin-1-yl)propan-1-one] | < 3 | < 3
CN1CCC(NC(=O)[C@@H](N)Cc2ccc(Oc3ccnc4[nH]cc(-c5ccccc5)c34)c(F)c2)CC1 [Example 204, (S)-2-amino-3-(3-fluoro-4-((3-phenyl-1H-pyrrolo[2,3-b]pyridin-4-yl)oxy)phenyl)-N-(1-methylpiperidin-4-yl)propanamide] | < 3 | < 3
CN(C)CCNC(=O)C(Cc1ccc(Oc2ccnc3[nH]ccc23)cc1)NC(=O)C1CCCCC1 (stereo not drawn) [Example 181, N-(3-(4-((1H-pyrrolo[2,3-b]pyridin-4-yl)oxy)phenyl)-1-((2-(dimethylamino)ethyl)amino)-1-oxopropan-2-yl)cyclohexanecarboxamide] | > 30 | > 30
Cc1c[nH]c2nccc(Oc3ccc(CC(N)C(=O)N4CCN(Cc5ccncc5)CC4)cc3F)c12 (stereo not drawn) [Example 51, 2-amino-3-(3-fluoro-4-((3-methyl-1H-pyrrolo[2,3-b]pyridin-4-yl)oxy)phenyl)-1-(4-(pyridin-4-ylmethyl)piperazin-1-yl)propan-1-one] | < 3 | < 3
Cc1c[nH]c2nccc(Oc3ccc(CC(N)C(=O)Nc4cccnc4)cc3F)c12 (stereo not drawn) [Example 70, 2-amino-3-(3-fluoro-4-((3-methyl-1H-pyrrolo[2,3-b]pyridin-4-yl)oxy)phenyl)-N-(pyridin-3-yl)propanamide] | < 3 | < 3
Cc1c[nH]c2nccc(Oc3ccc(CC(N)C(=O)NCCc4ccncc4)cc3F)c12 (single isomer, unassigned) [Example 57B, 2-amino-3-(3-fluoro-4-((3-methyl-1H-pyrrolo[2,3-b]pyridin-4-yl)oxy)phenyl)-N-(2-(pyridin-4-yl)ethyl)propanamide] | < 3 | < 3
Cc1c[nH]c2ncnc(Oc3ccc(C[C@H](N)C(=O)N4C[C@@H](C)N(C)[C@@H](C)C4)cc3F)c12 [Example 129, (S)-2-amino-3-(3-fluoro-4-((5-methyl-7H-pyrrolo[2,3-d]pyrimidin-4-yl)oxy)phenyl)-1-((3S,5R)-3,4,5-trimethylpiperazin-1-yl)propan-1-one] | < 3 | < 3
CN(C)C(Cc1ccc(Oc2ccnc3[nH]ccc23)cc1)C(=O)NC1CCCCC1 (stereo not drawn) [Example 183, 3-(4-((1H-pyrrolo[2,3-b]pyridin-4-yl)oxy)phenyl)-N-cyclohexyl-2-(dimethylamino)propanamide] | > 30 | 3 to 30
Cc1c[nH]c2nccc(Oc3ccc(C[C@H](N)C(=O)N4CCN(Cc5cnccn5)CC4)cc3F)c12 [Example 155, (S)-2-amino-3-(3-fluoro-4-((3-methyl-1H-pyrrolo[2,3-b]pyridin-4-yl)oxy)phenyl)-1-(4-(pyrazin-2-ylmethyl)piperazin-1-yl)propan-1-one] | < 3 | < 3
Cc1c[nH]c2ncnc(Oc3ccc(C[C@H](N)C(=O)N4CCC(O)(Cc5ccccc5)CC4)cc3F)c12 [Example 123, (S)-2-amino-1-(4-benzyl-4-hydroxypiperidin-1-yl)-3-(3-fluoro-4-((5-methyl-7H-pyrrolo[2,3-d]pyrimidin-4-yl)oxy)phenyl)propan-1-one] | < 3 | < 3
